Where a name gives a salt, the structure may show the parent alone.
System: HCT116
Settings: 72 h
Outline: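 HCT116 cells were seeded at 250 per well in 1536-well plates with 5 h allowed for attachment. CellTiter-Glo luminescence was normalized against vehicle (0%) and positive control (-100%) before pattern correction. The IC50 and maximal efficacy figures derive from four-parameter Hill fits.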

Row | Structure (SMILES) | IC50 cell viability (ICRF193 0 nM) [µM] | IC50 cell viability (ICRF193 200 nM) [µM]
1 | O=C(O)[C@@H](O)[C@H](O)[C@H](O)[C@@H](O)C(=O)O [Mucic acid] | > 45.8 | > 45.8
2 | C/C(=C\C(=O)OCCCCCCCCC(=O)O)C[C@@H]1OC[C@H](C[C@@H]2O[C@H]2[C@@H](C)[C@H](C)O)[C@@H](O)[C@H]1O [Mupirocin] | > 45.8 | > 45.8
3 | Cl.Cl.c1ccc(CNCCNCc2ccccc2)cc1 [N,N'-Dibenzylethane-1,2-diamine dihydrochloride] | > 45.8 | > 45.8
4 | C[N+](C)(C)CCCCCC[N+](C)(C)C [N,N,N,N',N',N'-Hexamethylhexane-1,6-diaminium] | > 45.8 | > 45.8
5 | CN(C)CC(=O)O [N,N-DIMETHYLGLYCINE HYDROCHLORIDE] | > 45.8 | > 45.8
6 | CC(=O)N[C@@H](Cc1ccc(O)cc1)C(=O)O [N-Acetyl-L-tyrosine] | > 45.8 | > 45.8
7 | c1ccc2sc(SNC3CCCCC3)nc2c1 [N-Cyclohexyl-2-benzothiazolesulfenamide] | > 45.8 | > 45.8
8 | CC([C@H](O)c1ccccc1)N(C)C (stereo partly drawn) [N-METHYL (-)EPHEDRINE [1R,2S]] | > 45.8 | > 45.8
9 | NC(=O)c1ccc[n+]([C@@H]2O[C@H](COP(=O)([O-])OP(=O)(O)OC[C@H]3O[C@@H](n4cnc5c(N)ncnc54)[C@H](O)[C@@H]3O)[C@@H](O)[C@H]2O)c1 [NAD+] | > 45.8 | > 45.8
10 | C#C[C@]1(O)CC[C@H]2[C@@H]3CCC4=C(CCC(=O)C4)[C@H]3CC[C@@]21C [NORETHYNODREL] | > 45.8 | > 45.8
11 | CC1C=CC=CCCC=CC=CC=CC=CC(OC2OC(C)C(O)C(N)C2O)CC2OC(O)(CC(O)C(O)CCC(O)CC(O)CC(O)CC(=O)OC(C)C(C)C1O)CC(O)C2C(=O)O (configuration not stated) [NYSTATIN] | > 45.8 | > 45.8
12 | Oc1ccc2c3c1O[C@H]1[C@@H](O)CC[C@@]4(O)[C@@H](C2)N(CC2CCC2)CC[C@]314 [Nalbuphine hydrochloride] | > 45.8 | > 45.8
13 | CN(C(=O)/C=C/c1ccoc1)[C@@H]1CC[C@@]2(O)[C@H]3Cc4ccc(O)c5c4[C@@]2(CCN3CC2CC2)[C@H]1O5 [Nalfurafine hydrochloride] | > 45.8 | > 45.8
14 | C=C1CC[C@@]2(O)[C@H]3Cc4ccc(O)c5c4[C@@]2(CCN3CC2CC2)[C@H]1O5 [Nalmefene] | > 45.8 | > 45.8
15 | C=CCN1CC[C@]23c4c5ccc(O)c4O[C@H]2[C@@H](OCCOCCOCCOCCOCCOCCOCCOC)CC[C@@]3(O)[C@H]1C5 [Naloxegol (oxalate)] | > 45.8 | > 45.8
16 | C=CCN1CC[C@]23c4c5ccc(O)c4O[C@H]2C(=O)CC[C@@]3(O)[C@H]1C5 [Naloxone] | > 45.8 | > 45.8
17 | CC(=O)N[C@@H](CCC(N)=O)C(=O)O [Nalpha-Acetyl-L-glutamine] | > 45.8 | > 45.8
18 | O=C1CC[C@@]2(O)[C@H]3Cc4ccc(O)c5c4[C@@]2(CCN3CC2CC2)[C@H]1O5 [Naltrexone hydrochloride] | > 45.8 | > 45.8
19 | CCCCCCCCCC(=O)O[C@H]1CC[C@H]2[C@@H]3CCC4=CC(=O)CC[C@@H]4[C@H]3CC[C@]12C [Nandrolone decanoate] | > 45.8 | > 45.8
20 | C[C@]12CC[C@H]3[C@@H](CCC4=CC(=O)CC[C@@H]43)[C@@H]1CC[C@@H]2OC(=O)CCc1ccccc1 [Nandrolone phenpropionate] | > 45.8 | > 45.8
21 | CC(C)[C@H]1CC[C@H](C(=O)N[C@H](Cc2ccccc2)C(=O)O)CC1 [Nateglinide] | > 45.8 | > 45.8
22 | N.N.O=C([O-])C[O-].[Pt+2] [Nedaplatin] | > 45.8 | > 45.8
23 | CN(C)C(=O)Oc1cccc([N+](C)(C)C)c1 [Neostigmine bromide] | > 45.8 | > 45.8
24 | NC(=O)Cc1cccc(C(=O)c2ccccc2)c1N [Nepafenac] | > 45.8 | > 45.8
25 | CCN[C@@H]1C[C@H](N)[C@@H](O[C@H]2OC(CN)=CC[C@H]2N)[C@H](O)[C@H]1O[C@H]1OC[C@](C)(O)[C@H](NC)[C@H]1O [Netilmicin sulfate] | > 45.8 | > 45.8
26 | O=C(O)c1cccnc1 [Niacin] | > 45.8 | > 45.8
27 | O=C(OCC(COC(=O)c1cccnc1)(COC(=O)c1cccnc1)COC(=O)c1cccnc1)c1cccnc1 [Niceritrol] | > 45.8 | > 45.8
28 | CCCCOCCOC(=O)c1cccnc1 [Nicoboxil] | > 45.8 | > 45.8

Further lines, results first:

Row | IC50 cell viability (ICRF193 0 nM) [µM] | IC50 cell viability (ICRF193 200 nM) [µM] | Structure (SMILES)
29 | > 45.8 | > 45.8 | CCOC(=O)Nc1ccc2c(c1)N(C(=O)CCN1CCOCC1)c1ccccc1S2 [Moricizine hydrochloride]
30 | > 45.8 | > 45.8 | CCOc1cc(N)c(Cl)cc1C(=O)NCC1CN(Cc2ccc(F)cc2)CCO1 (configuration not stated) [Mosapride citrate]
31 | > 45.8 | > 45.8 | CO[C@@]1(NC(=O)C(C(=O)O)c2ccc(O)cc2)C(=O)N2C(C(=O)O)=C(CSc3nnnn3C)CO[C@@H]21 (some centres not stated) [Moxalactam disodium]
32 | > 45.8 | > 45.8 | COc1c(N2C[C@@H]3CCCN[C@@H]3C2)c(F)cc2c(=O)c(C(=O)O)cn(C3CC3)c12 [Moxifloxacin (Hydrochloride)]
33 | > 45.8 | > 45.8 | CC(=O)Oc1cc(C(C)C)c(OCCN(C)C)cc1C [Moxisylyte hydrochloride]
34 | > 45.8 | > 45.8 | COc1nc(C)nc(Cl)c1NC1=NCCN1 [Moxonidine hydrochloride hydrate]
35 | > 45.8 | > 45.8 | CN(C)Cc1ccccc1 [N,N-Dimethylbenzylamine]
36 | > 45.8 | > 45.8 | CC(=O)Nc1ccc(S(=O)(=O)Nc2cc(C)on2)cc1 [N-Acetyl sulfamethoxazole]
37 | > 45.8 | > 45.8 | O=C1CCC(=O)N1CO [N-Hydroxymethylsuccinimide]
38 | > 45.8 | > 45.8 | c1ccc2sc(SN3CCOCC3)nc2c1 [N-Oxydiethylenebenzothiazole-2-sulfenamide]
39 | > 45.8 | > 45.8 | c1ccc2ccccc2c1 [NAPHTHALENE, ZONE REFINED]
40 | > 45.8 | > 45.8 | C#C[C@]1(OC(C)=O)CC[C@H]2[C@@H]3CCC4=CC(=O)CC[C@@H]4[C@H]3CC[C@@]21C [NORETHINDRONE ACETATE]
41 | > 45.8 | > 45.8 | CC(C)N(CCCCOCC(=O)NS(C)(=O)=O)c1cnc(-c2ccccc2)c(-c2ccccc2)n1 [NS-304]
42 | > 45.8 | > 45.8 | COc1ccc2cc(CCC(C)=O)ccc2c1 [Nabumetone]
43 | > 45.8 | > 45.8 | CC1CCc2c(N3CCC(O)CC3)c(F)cc3c(=O)c(C(=O)O)cn1c23 (configuration not stated) [Nadifloxacin]
44 | > 45.8 | > 45.8 | CC(C)(C)NCC(O)COc1cccc2c1CC(O)C(O)C2 (configuration not stated) [Nadolol]
45 | > 45.8 | > 45.8 | N=C(N)Nc1ccc(C(=O)Oc2ccc3cc(C(=N)N)ccc3c2)cc1 [Nafamostat mesilate]

Row | IC50 cell viability (ICRF193 0 nM) [µM] | IC50 cell viability (ICRF193 200 nM) [µM] | Structure (SMILES)
46 | > 45.8 | > 45.8 | CCOc1ccc2ccccc2c1C(=O)N[C@@H]1C(=O)N2[C@@H]1SC(C)(C)[C@@H]2C(=O)O [Nafcillin sodium monohydrate]
47 | > 45.8 | > 45.8 | CCN(CC)CCOC(=O)C(Cc1cccc2ccccc12)CC1CCCO1 (configuration not stated) [Nafronyl oxalate]
48 | > 45.8 | > 45.8 | CCn1cc(C(=O)O)c(=O)c2ccc(C)nc21 [Nalidixic acid]
49 | > 45.8 | > 45.8 | c1ccc2c(CC3=NCCN3)cccc2c1 [Naphazoline hydrochloride]
50 | > 45.8 | > 45.8 | COc1ccc2cc([C@H](C)C(=O)O)ccc2c1 [Naproxen sodium]
51 | > 45.8 | > 45.8 | CNS(=O)(=O)CCc1ccc2[nH]cc(C3CCN(C)CC3)c2c1 [Naratriptan hydrochloride]
52 | > 45.8 | > 45.8 | CCCc1c2oc(C(=O)O)cc(=O)c2cc2c(=O)cc(C(=O)O)n(CC)c12 [Nedocromil]
53 | > 45.8 | > 45.8 | CN1CCOC(c2ccccc2)c2ccccc2C1 (configuration not stated) [Nefopam hydrochloride]
54 | > 45.8 | > 45.8 | COc1nc(N)nc2c1ncn2[C@@H]1O[C@H](CO)[C@@H](O)[C@@H]1O [Nelarabine]
55 | > 45.8 | > 45.8 | COc1ccnc2c1CCCCC2[S+]([O-])c1nc2ccccc2[nH]1 (configuration not stated) [Nepaprazole]
56 | > 45.8 | > 45.8 | CCCCc1cc2c(=O)c(C(=O)OC)c[nH]c2cc1OCc1ccccc1 [Nequinate]
57 | > 45.8 | > 45.8 | CCOc1cc2ncc(C#N)c(Nc3ccc(OCc4ccccn4)c(Cl)c3)c2cc1NC(=O)/C=C/CN(C)C [Neratinib]
58 | > 45.8 | > 45.8 | Cc1ccccc1-c1cc(N2CCN(C)CC2)ncc1N(C)C(=O)C(C)(C)c1cc(C(F)(F)F)cc(C(F)(F)F)c1 [Netupitant]
59 | > 45.8 | > 45.8 | Cc1ccnc2c1NC(=O)c1cccnc1N2C1CC1 [Nevirapine]
60 | > 45.8 | > 45.8 | CCN(CC)CCOC(=O)c1cccnc1 [Nicametate citrate]
61 | > 45.8 | > 45.8 | O=C(OCC1(COC(=O)c2cccnc2)CCCC(COC(=O)c2cccnc2)(COC(=O)c2cccnc2)C1O)c1cccnc1 [Nicomolol]

Source: the supplement of paper PMC12137928
